Measured values as given in patent US6989435B2, “Compounds and methods to inhibit or augment an inflammatory response” (Cambridge University Technical Services Ltd., priority 1997, dated 2006).
Positions of bridges follow the written chain, without caps; N, C: chain ends. Non-standard residues stand in square brackets, D forms with d. No end group written: not given here.

How the values were obtained:
[1] = system: chemokine-induced THP-1 migration (MCP-1, MIP1α, IL8, SDF1α); experiment: Trans-well THP-1 migration assay, across the chemokines tested; format: cell-based, human; details: for selectivity ratio (CC versus CXC chemokines): >1 = greater inhibition of CC chemokines, <1 = of CXC chemokines; for CC SPECIFICITY: Table 7, average inhibitory ED50 versus SDF1 and IL8 divided by average inhibitory ED50 versus MCP-1 and MIP1α
Procedure: To determine whether an agent inhibits a chemokine-induced activity, such as macrophage recruitment, varying amounts of the agent are mixed with cells in the presence of a known chemoattractant. […] Chemokine (such as MCP-1, MIP1α, IL8 or SDF-1α), at a concentration known to cause significant migration of THP-1 cells in the trans-well migration assay, is placed in the lower compartment (FIG. 1). […] After incubation, the cells are gently removed from the top of the filter with a pipette, 20 μl of 20 mM EDTA in simple PBS is added into each top well, and incubated for 20 minutes at 4° C. The filter is carefully flushed with media using a gentle flow, and removed. […] The media is carefully aspirated from each well, and the converted dye is solubilized by 20 μl of DMSO. Absorbance of converted dye is measured at a wavelength of 595 nm using an ELISA plate reader. The number of migrated cells in each well is then determined by interpolation of the standard curve (see also Imai et al., J. Biol. Chem., 272, 15036 (1997)). […] The framed filter was aligned with the holes in the corner of the filter frame and placed over the wells. Five×10^4 THP-1 cells in 25 μl of RPMI-1640 culture media were added to the upper compartment. Peptides were dissolved in Milli Q water and then serially diluted in culture medium. In most cases, the serially diluted peptides were added to the upper compartment of the chemotaxis chamber. […] After incubation, the cells were gently removed from the top of the filter with a pipette, 20 μl of 20 mM EDTA in PBS was added into each top well, and the mixture was incubated for 20 minutes at 4° C. The filter was then carefully flushed with media using a gentle flow, and removed. […] The media was carefully aspirated from each well, and the converted dye was solubilized by 20 μl of DMSO. Absorbance of converted dye was measured at a wavelength of 595 nm using an ELISA plate reader. […] Representative chemokines included a beta-chemokine (“CC”), MIP-1α, and two alpha-chemokines (“CXC”), IL-8 and SDF-1α. […]

[2] = molecular target: T1, Duffy Antigen Receptor for Chemokines (DARC) (Homo sapiens, UniProt Q16570); experiment: DARC binding: competition with 125I-labeled MCP-1 on red blood cells; details: for DUFFY SELECTIVITY: Table 7, estimated ka for binding to red blood cells divided by average inhibitory ED50 versus each of the chemokines
T1 sequence (Q16570 1-336): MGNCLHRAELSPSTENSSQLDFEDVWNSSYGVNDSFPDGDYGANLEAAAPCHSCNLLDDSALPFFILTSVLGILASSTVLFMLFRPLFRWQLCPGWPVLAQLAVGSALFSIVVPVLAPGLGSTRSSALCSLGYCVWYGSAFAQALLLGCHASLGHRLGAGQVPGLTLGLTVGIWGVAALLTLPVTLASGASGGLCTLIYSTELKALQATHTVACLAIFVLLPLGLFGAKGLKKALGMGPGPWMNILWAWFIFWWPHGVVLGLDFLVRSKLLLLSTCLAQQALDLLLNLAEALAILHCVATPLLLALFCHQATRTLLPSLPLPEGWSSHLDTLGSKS

[3] = system: MCP-1 induced THP-1 migration; experiment: Trans-well THP-1 migration assay, MCP-1 as chemoattractant; format: cell-based, human; details: for IC50: derivatives of leu4ile11peptide 3, read-out: MCP-1 inhibitory activity in the THP-1 transwell assay
Procedure: (§1) FIG. 1 is a schematic of the trans-well migration assay. In most experiments, the peptide (wavy line) is added to the upper well with about 50,000 cells (O). The upper and lower wells are separated by a 5 μm or 8 μm pore size PVP-free membrane (- - - -). Chemokine (●) is added to the lower well. After 4 hours, the number of cells that have migrated through the membrane are measured (◯ in lower well).
To determine whether an agent inhibits a chemokine-induced activity, such as macrophage recruitment, varying amounts of the agent are mixed with cells in the presence of a known chemoattractant. For example, a range of known concentrations of an agent, e.g., a chemokine peptide, is incubated with a defined number (e.g., 10^4-10^6) of human THP-1 monocyte cells in individual wells of the top compartment of a trans-well plate. Chemokine (such as MCP-1, MIP1α, IL8 or SDF-1α), at a concentration known to cause significant migration of THP-1 cells in the trans-well migration assay, is placed in the lower compartment (FIG. 1). Cells are then incubated at 37° C. for a period sufficient to allow migration, e.g., 4 hours. After incubation, the cells are gently removed from the top of the filter with a pipette, 20 μl of 20 mM EDTA in simple PBS is added into each top well, and incubated for 20 minutes at 4° C. The filter is carefully flushed with media using a gentle flow, and removed. A standard curve consisting of a two-fold dilution series of THP-1 cells (in 29 μl) is prepared to accurately quantify the number of cells that have migrated. Migrated cells are stained with 3 μl of MTT stock dye solution which is added directly into each well (5 mg/ml in RPMI-1640 without phenol red, Sigma Chemical Co.) and incubated at 37° C. for 4 hours. The media is carefully aspirated from each well, and the converted dye is solubilized by 20 μl of DMSO. Absorbance of converted dye is measured at a wavelength of 595 nm using an ELISA plate reader. The number of migrated cells in each well is then determined by interpolation of the standard curve (see also Imai et al., J. Biol. Chem., 272, 15036 (1997)).
Any method suitable for counting cells can be used, for example, counting with a hemocytometer, incubation of the cells with MTT (see above), or FACS analysis. A negative control assay is also performed, using TGF-β or another non-chemokine chemoattractant (e.g., IL1β or TNFα). To assess whether the agent is cytotoxic, the same concentrations of agent are incubated with THP-1 cells. Agents which 1) are not cytotoxic at levels which inhibit migration, 2) are ineffective at inhibiting the negative control-induced migration, and 3) reduce or inhibit chemokine-induced THP-1 migration, are agents which fall within the scope of the invention.
For this assay, THP-1 cells were maintained at a density of 4×10^5 cells per ml in RPMI-1640 supplemented with 10% fetal calf serum+20 μM 2-mercaptoethanol. Chemotaxis was induced in a 96-well disposable chemotaxis chamber fitted with a […] polycarbonate filter (PVP free, ChemoTX, Neuroprobe Inc., Cabin John). Twenty-nine μl of chemoattractant (recombinant human chemokine; 50 ng/ml, i.e., 5.9 nM) or control (100 ng/ml TGFβ) was added to the lower compartment of each well. The framed filter was aligned with the holes in the corner of the filter frame and placed over the wells. Five×10^4 THP-1 cells in 25 μl of RPMI-1640 culture media were added to the upper compartment. Peptides were dissolved in Milli Q water and then serially diluted in culture medium. In most cases, the serially diluted peptides were added to the upper compartment of the chemotaxis chamber. The chamber was incubated at 37° C. in a humidified atmosphere of 5% CO2 for 4 hours.
After incubation, the cells were gently removed from the top of the filter with a pipette, 20 μl of 20 mM EDTA in PBS was added into each top well, and the mixture was incubated for 20 minutes at 4° C. The filter was then carefully flushed with media using a gentle flow, and removed. […]

[4] = system: SDF-1α induced THP-1 migration; experiment: Trans-well THP-1 migration assay, SDF-1α as chemoattractant; format: cell-based, human; details: THP-1 migration
Procedure: as §1
To determine whether an agent inhibits a chemokine-induced activity, such as macrophage recruitment, varying amounts of the agent are mixed with cells in the presence of a known chemoattractant. For example, a range of known concentrations of an agent, e.g., a chemokine peptide, is incubated with a defined number (e.g., 10^4-10^6) of human THP-1 monocyte cells in individual wells of the top compartment of a trans-well plate. […] A standard curve consisting of a two-fold dilution series of THP-1 cells (in 29 μl) is prepared to accurately quantify the number of cells that have migrated. […] Absorbance of converted dye is measured at a wavelength of 595 nm using an ELISA plate reader. The number of migrated cells in each well is then determined by interpolation of the standard curve (see also Imai et al., J. Biol. Chem., 272, 15036 (1997)). […]

KQKWVQ [Peptide 3[7-12]]
selectivity ratio (CC versus CXC chemokines) [1]: 1.1 | CC SPECIFICITY [1]: 1.0 | DUFFY SELECTIVITY [2]: 2.94 | DARC specificity ratio / Duffy selectivity ([2]; estimated ka for association with DARC divided by the ED50 for biological activity): about 3.0

CQVWKQKPDAC [LRD-Cys13leu4ile11pep3[3-12]]
IC50 [3]: 200 to 400 nM | DUFFY SELECTIVITY [2]: 4.59

EICLDPKQKWIQ [Leu4ile11peptide 3]
concentrations inhibiting MCP1 induced migration [3]: around 1 μM | potency as an inhibitor of MCP-1 signaling relative to peptide 3(1-12)[MCP-1] [3]: approximately 5 fold | IC50 [3]: 1000 to 5000 nM | potency as an inhibitor of CC chemokines relative to peptide 3(1-12)[MCP-1] [1]: approximately 5 fold | selectivity ratio (CC versus CXC chemokines) [1]: 2.0 | CC SPECIFICITY [1]: 2.0 | DARC binding, in words [2]: essentially no DARC binding capacity

NCCCC[C@H](NC(=O)[C@H](CCC(N)=O)NC(=O)[C@@H](N)CCCCN)C(=O)O [KQK]
Kd [2]: > 50000 nM

EICADPSEEWVQ [Ser7Glu8Glu9pep 3]
CC SPECIFICITY [1]: 1.6 | DUFFY SELECTIVITY [2]: 0.59

CADPKQKWVQ [Peptide 3[3-12]]
CC SPECIFICITY [1]: 1.2 | DUFFY SELECTIVITY [2]: 1.21

APG [reference compound]
inhibition of THP-1 cell migration induced by MCP-1, MIP1α, IL-8 and SDF1α, in words [1]: None of these significantly inhibited

-CQVWKQKPDA C- ([dC][dQ][dV][dW][dK][dQ][dK][dP][dD][dA][dC]; disulfide 1-11) [CRD-Cys13pep3[3-12]]
DUFFY SELECTIVITY [2]: 8.82

KLK [cognate tripeptide from SDF1]
inhibition of SDF1, in words [4]: specific and potent inhibitor | CC SPECIFICITY [1]: <0.1

TTT [reference compound]
inhibition of THP-1 cell migration induced by MCP-1, MIP1α, IL-8 and SDF1α, in words [1]: None of these significantly inhibited

Leu4ile11peptide 3(3-12)[MCP-1]: leu4ile11 variant of peptide 3(3-12)[MCP-1] (CLDPKKEWIQ)
affinity relative to peptide 3(1-12)[MCP-1] ([1]; in words): higher affinity peptide analog
